# Laboratory results: patent publication US11896581B2, “Compositions and methods for providing health benefits in an animal” (Société des Produits Nestlé S.A., priority 2020, dated 2024)
# Test system: H4IIE cells
# Assay: Cellular bioassay of hepatic glucose production (gluconeogenesis) induced by sodium pyruvate and lactate (SLP)
# Format: cell-based
# Settings: for glucose production relative to SLP condition (100%): 6 h incubation
# Procedure: A cellular bioassay was established according to a method described by Okamoto et al. (Establishment and characterization of a novel method for evaluating gluconeogenesis using hepatic cell lines, H4IIE and HepG2, Archives of Biochemistry and Biophysics, Volume 491, Issues 1-2, November 2009, Pages 46-52; Takashi Okamoto, Naohide Kanemoto, Takashi Ban, Toshiki Sudo, Keisuke Nagano, Ichiro Niki.) (FIG. 1). Briefly, H4IIE cells pre-cultured at high density were seeded into a 12-well plate at a density of 5.714×10^5 cells/cm^2 and cultured for 24 h in EMEM supplemented with 10% FCS. […] The assay was started by switching the medium for KHH Buffer in the presence of gluconeogenesis-inducing substrates (1 mM sodium pyruvate and 10 mM lactate). Compounds were added at different concentrations and tested in duplicate. 10 mM of metformin was included as a positive control for inhibition of gluconeogenesis. The conditioned medium was collected after 6 h of incubation (stored at −80° C.). The cells remaining in the wells are washed once with PBS and then stored dry at −20° C.). The medium is used to assay glucose content using a fluorometric glucose assay kit. Frozen cells' proteins are first extracted and then quantified, to normalize the glucose results. Components were tested in at least two independent experiments performed at different cell passages. The selected compounds (Histidine and Ferulic acid) were tested individually to assess their inhibitory effect on hepatic glucose production (Table 1) using a range of concentrations determined from previous internal knowledge and literature. Additional experiments on individual compounds were conducted: the amino acid arginine and leucine to test the specificity of histidine effects against other amino acids. In addition, interactions and synergies between compounds were further explored using combined formulations, for which detailed information is provided in Table 1. For data analysis described herein, results are expressed as relative glucose produced in every treatment compared to the glucose produced using SLP treatment. […] Independent experiments were performed, using different cells passages in each condition. […] Sodium Pyruvate (1 mM) and Sodium Lactate (10 mM) was used to induce gluconeogenesis in H4IIE cells.
smiles,measurement,setting,value
"N=C(N)NCCC[C@H](N)C(=O)O [Arginine, arginine, reference compound]",glucose production relative to SLP condition (100%),single compound at 0.2 mM,81.44%±2.72
same,glucose production relative to SLP condition (100%),single compound at 2 mM,65.01%±11.52
same,glucose production relative to SLP condition (100%),single compound at 20 mM,45.40%±3.57
"COc1cc(/C=C/C(=O)O)ccc1O [Ferulic acid, ferulic acid]",inhibition on doubling the dose,dose doubled from 0.5 μM to 1 μM,30%
same,inhibiting effect of doubling the dose,dose doubled from 1 μM to 2 μM,40%
same,inhibition on doubling the dose,dose doubled from 2 μM to 4 μM,32%
same,glucose production relative to SLP condition (100%),single compound at 0.5 μM,85.67%±3.81
same,glucose production relative to SLP condition (100%),single compound at 0.8 μM,81.51%±11.70
same,glucose production relative to SLP condition (100%),single compound at 1 μM,61.38%±15.82
same,glucose production relative to SLP condition (100%),single compound at 2 μM,36.57%±6.02
same,glucose production relative to SLP condition (100%),single compound at 4 μM,25.08%±5.03
"CC(C)C[C@H](N)C(=O)O [Leucine, leucine, reference compound]",glucose production relative to SLP condition (100%),single compound at 0.2 mM,84.69%±1.05
same,glucose production relative to SLP condition (100%),single compound at 2 mM,75.37%±0.36
same,glucose production relative to SLP condition (100%),single compound at 20 mM,83.76%±7.30
N[C@@H](Cc1c[nH]cn1)C(=O)O [histidine],inhibiting effect of doubling the dose,dose doubled from 0.5 mM to 1 mM,52%
same,inhibiting effect of doubling the dose,dose doubled from 1 mM to 2 mM,25%
same,glucose production relative to SLP condition (100%),single compound at 0.2 mM,93.7%±10.85
same,glucose production relative to SLP condition (100%),single compound at 0.5 mM,87.00%±17.2
same,glucose production relative to SLP condition (100%),single compound at 1 mM,52.67%±4.16
same,glucose production relative to SLP condition (100%),single compound at 2 mM,39.19%±7.44
same,glucose production relative to SLP condition (100%),single compound at 20 mM,8.39%±2.49
"CN(C)C(=N)N=C(N)N [metformin, reference compound]",glucose production relative to SLP condition (100%),"10 mM, positive control",9.71%±4.2
